Experimental data as given in patent US11596632B2, “JAK1 pathway inhibitors for the treatment of gastrointestinal disease” (Incyte Corporation, priority 2018, dated 2023).
pIC50: −log10 of the molar value.

What was measured:
[1] = target: human JAK1 (a.a. 837-1142) (Homo sapiens (Human), UniProt P23458); test: In vitro JAK kinase assay (HTRF), JAK1; assay type: biochemical; settings: 1 mM ATP
Method: (§1) The catalytic activity of JAK1, JAK2 or JAK3 was assayed by measuring the phosphorylation of a biotinylated peptide. The phosphorylated peptide was detected by homogenous time resolved fluorescence (HTRF). […] Reactions are carried out at room temperature for 1 hour and then stopped with 20 μL 45 mM EDTA, 300 nM SA-APC, 6 nM Eu-Py20 in assay buffer (Perkin Elmer, Boston, Mass.). Binding to the Europium labeled antibody takes place for 40 minutes and HTRF signal was measured on a Fusion plate reader (Perkin Elmer, Boston, Mass.).

JAK2 (a.a. 828-1132) = JAK2 (a.a. 828-1132) (Homo sapiens (Human), UniProt O60674); test: In vitro JAK kinase assay (HTRF), JAK2 relative to JAK1; assay type: biochemical; settings: IC50 ratio, 1 mM ATP
Method: as §1

[2] = tested on: oxazolone-induced colitis in BALB/c mice; settings: published results (Beattie et al); cited from earlier work

Sequence of JAK2 (a.a. 828-1132) (O60674 828-1132): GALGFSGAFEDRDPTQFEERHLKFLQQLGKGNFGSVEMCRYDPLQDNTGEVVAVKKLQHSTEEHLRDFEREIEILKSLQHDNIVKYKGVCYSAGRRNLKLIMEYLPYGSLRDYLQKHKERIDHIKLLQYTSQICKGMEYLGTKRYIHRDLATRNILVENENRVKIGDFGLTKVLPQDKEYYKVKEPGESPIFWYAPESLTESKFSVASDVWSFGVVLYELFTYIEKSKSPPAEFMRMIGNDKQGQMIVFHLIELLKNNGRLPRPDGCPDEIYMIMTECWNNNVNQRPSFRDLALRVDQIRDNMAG
Sequence of human JAK1 (a.a. 837-1142) (P23458 837-1142): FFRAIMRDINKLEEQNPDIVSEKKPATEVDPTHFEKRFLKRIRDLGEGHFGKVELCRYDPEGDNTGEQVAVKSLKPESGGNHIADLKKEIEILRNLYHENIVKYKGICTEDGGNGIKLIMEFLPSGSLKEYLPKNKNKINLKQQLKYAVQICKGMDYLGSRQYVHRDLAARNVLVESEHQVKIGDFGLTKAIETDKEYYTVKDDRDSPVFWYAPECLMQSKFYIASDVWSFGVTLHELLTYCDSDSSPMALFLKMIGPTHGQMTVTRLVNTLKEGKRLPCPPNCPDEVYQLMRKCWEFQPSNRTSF

Row | SMILES | pIC50 [1] | JAK2/JAK1 (JAK2 (a.a. 828-1132)) | effect on oxazolone-induced colitis [2]
1 | CC(C)(O)c1cc(O[C@H]2CC[C@@H](N3CC(CC#N)(n4cc(-c5ncnc6[nH]ccc56)cn4)C3)CC2)nc(C(F)(F)F)c1 [Compound 20, {1-(cis-4-{[4-(1-hydroxy-1-methylethyl)-6-(trifluoromethyl)pyridin-2-yl]oxy}cyclohexyl)-3-[4-(7H-pyrrolo[2,3-d]pyrimidin-4-yl)-1H-pyrazol-1-yl]azetidin-3-yl}acetonitrile] | > 8.00 | >10 | –
2 | N#CC[C@]1(n2cc(-c3ncnc4[nH]ccc34)cn2)C[C@H](N2CCN(C(=O)c3ccnc(C(F)(F)F)n3)CC2)C1 [Compound 10, [trans-1-[4-(7H-pyrrolo[2,3-d]pyrimidin-4-yl)-1H-pyrazol-1-yl]-3-(4-{[2-(trifluoromethyl)pyrimidin-4-yl]carbonyl}piperazin-1-yl)cyclobutyl]acetonitrile] | > 8.00 | >10 | –
3 | N#CC[C@]1(n2cc(-c3ncnc4[nH]ccc34)cn2)C[C@H](N2CCC(Oc3cc(CCO)cc(C(F)(F)F)n3)CC2)C1 [Compound 26, {trans-3-(4-{[4-(2-hydroxyethyl)-6-(trifluoromethyl)pyridin-2-yl]oxy}piperidin-1-yl)-1-[4-(7H-pyrrolo[2,3-d]pyrimidin-4-yl)-1H-pyrazol-1-yl]cyclobutyl}acetonitrile] | > 8.00 | >10 | –
4 | N#CCC1(n2cc(-c3ncnc4[nH]ccc34)cn2)CN([C@H]2CC[C@@H](Oc3cc(CN4CC[C@H](O)C4)cc(C(F)(F)F)n3)CC2)C1 [Compound 22, {1-(cis-4-{[4-{[(3S)-3-hydroxypyrrolidin-1-yl]methyl}-6-(trifluoromethyl)pyridin-2-yl]oxy}cyclohexyl)-3-[4-(7H-pyrrolo[2,3-d]pyrimidin-4-yl)-1H-pyrazol-1-yl]azetidin-3-yl}acetonitrile] | > 8.00 | >10 | –
5 | N#CCC(C1CCN(c2cccc(Cl)n2)C1)n1cc(-c2ncnc3[nH]ccc23)cn1 (single isomer, unassigned) [Compound 6, 3-[1-(6-chloropyridin-2-yl)pyrrolidin-3-yl]-3-[4-(7H-pyrrolo[2,3-d]pyrimidin-4-yl)-1H-pyrazol-1-yl]propanenitrile] | > 8.00 | >10 | –
6 | N#CC[C@]1(n2cc(-c3ncnc4[nH]ccc34)cn2)C[C@H](N2CCC(Oc3cc(CN4CCC[C@H]4CO)cc(C(F)(F)F)n3)CC2)C1 [Compound 12, {trans-3-(4-{[4-{[(2S)-2-(hydroxymethyl)pyrrolidin-1-yl]methyl}-6-(trifluoromethyl)pyridin-2-yl]oxy}piperidin-1-yl)-1-[4-(7H-pyrrolo[2,3-d]pyrimidin-4-l)-1H-pyrazol-1-yl]cyclobutyl}acetonitrile] | > 8.00 | >10 | –
7 | N#CCC1(n2cc(-c3ncnc4[nH]ccc34)cn2)CN(C2CCN(C(=O)Nc3ccc(F)cc3C(F)(F)F)CC2)C1 [Compound 2, 4-{3-(Cyanomethyl)-3-[4-(7H-pyrrolo[2,3-d]pyrimidin-4-yl)-1H-pyrazol-1-yl]azetidin-1-yl}-N-[4-fluoro-2-(trifluoromethyl)phenyl]piperidine-1-carboxamide] | > 8.00 | >10 | –
8 | N#CCC1(n2cc(-c3ncnc4[nH]ccc34)cn2)CN([C@H]2CC[C@@H](Oc3cc(CCO)nc(C(F)(F)F)n3)CC2)C1 [Compound 18, {1-(cis-4-{[6-(2-hydroxyethyl)-2-(trifluoromethyl)pyrimidin-4-yl]oxy}cyclohexyl)-3-[4-(7H-pyrrolo[2,3-d]pyrimidin-4-yl)-1H-pyrazol-1-yl]azetidin-3-yl}acetonitrile] | > 8.00 | >10 | –
9 | C[C@H](O)CNCc1cc(OC2CCN([C@H]3C[C@](CC#N)(n4cc(-c5ncnc6[nH]ccc56)cn4)C3)CC2)nc(C(F)(F)F)c1 [Compound 25, {trans-3-(4-{[4-({[(2S)-2-hydroxypropyl]amino}methyl)-6-(trifluoromethyl)pyridin-2-yl]oxy}piperidin-1-yl)-1-[4-(7H-pyrrolo[2,3-d]pyrimidin-4-yl)-1H-pyrazol-1-yl]cyclobutyl}acetonitrile] | > 8.00 | >10 | –
10 | N#CC[C@]1(n2cc(-c3ncnc4[nH]ccc34)cn2)C[C@H](N2CCC(Oc3cc(CN4CC(O)C4)cc(C(F)(F)F)n3)CC2)C1 [Compound 11, {trans-3-(4-{[4-[(3-hydroxyazetidin-1-yl)methyl]-6-(trifluoromethyl)pyridin-2-yl]oxy}piperidin-1-yl)-1-[4-(7H-pyrrolo[2,3-d]pyrimidin-4-yl)-1H-pyrazol-1-yl]cyclobutyl}acetonitrile] | > 8.00 | >10 | –
11 | N#CCC1(n2cc(-c3ncnc4[nH]ccc34)cn2)CN(C2CCN(C(=O)c3ccnc(C(F)(F)F)n3)CC2)C1 [Compound 3, [3-[4-(7H-pyrrolo[2,3-d]pyrimidin-4-yl)-1H-pyrazol-1-yl]-1-(1-{[2-(trifluoromethyl)pyrimidin-4-yl]carbonyl}piperidin-4-yl)azetidin-3-yl]acetonitrile] | > 8.00 | >10 | –
12 | C[C@@H](CO)NCc1cc(OC2CCN([C@H]3C[C@](CC#N)(n4cc(-c5ncnc6[nH]ccc56)cn4)C3)CC2)nc(C(F)(F)F)c1 [Compound 23] | > 8.00 | >10 | –
13 | N#CCC(C1CCN(c2nc3cccnc3o2)C1)n1cc(-c2ncnc3[nH]ccc23)cn1 (stereo not drawn) [Compound 7, 3-(1-[1,3]oxazolo[5,4-b]pyridin-2-ylpyrrolidin-3-yl)-3-[4-(7H-pyrrolo[2,3-d]pyrimidin-4-yl)-1H-pyrazol-1-yl]propanenitrile] | > 8.00 | >10 | –
14 | N#CC[C@]1(n2cc(-c3ncnc4[nH]ccc34)cn2)C[C@H](N2CCC(Oc3cc(CN4CCC[C@@H]4CO)cc(C(F)(F)F)n3)CC2)C1 [Compound 13, {trans-3-(4-{[4-{[(2R)-2-(hydroxymethyl)pyrrolidin-1-yl]methyl}-6-(trifluoromethyl)pyridin-2-yl]oxy}piperidin-1-yl)-1-[4-(7H-pyrrolo[2,3-d]pyrimidin-4-yl)-1H-pyrazol-1-yl]cyclobutyl}acetonitrile] | > 8.00 | >10 | –
15 | C[C@@H](O)c1nc2cnc3ccsc3c2n1[C@H]1CC[C@H](CC#N)OC1 [Compound 5, ((2R,5S)-5-{2-[(1R)-1-hydroxyethyl]-1H-imidazo[4,5-d]thieno[3,2-b]pyridin-1-yl}tetrahydro-2H-pyran-2-yl)acetonitrile] | > 7.00 | >10 | –
16 | N#CCC1(n2cc(-c3ncnc4[nH]ccc34)cn2)CN([C@H]2CC[C@@H](Oc3cc(CN4CC[C@@H](O)C4)cc(C(F)(F)F)n3)CC2)C1 [Compound 21, {1-(cis-4-{[4-{[(3R)-3-hydroxypyrrolidin-1-yl]methyl}-6-(trifluoromethyl)pyridin-2-yl]oxy}cyclohexyl)-3-[4-(7H-pyrrolo[2,3-d]pyrimidin-4-yl)-1H-pyrazol-1-yl]azetidin-3-yl}acetonitrile] | > 8.00 | >10 | –
17 | C[C@@H](O)CNCc1cc(OC2CCN([C@H]3C[C@](CC#N)(n4cc(-c5ncnc6[nH]ccc56)cn4)C3)CC2)nc(C(F)(F)F)c1 [Compound 24, {trans-3-(4-{[4-({[(2R)-2-hydroxypropyl]amino}methyl)-6-(trifluoromethyl)pyridin-2-yl]oxy}piperidin-1-yl)-1-[4-(7H-pyrrolo[2,3-d]pyrimidin-4-yl)-1H-pyrazol-1-yl]cyclobutyl}acetonitrile] | > 8.00 | >10 | –
18 | N#CCC(CN1CCN(C(=O)c2ccc(C#N)cc2F)CC1)n1ccc(-c2ncnc3[nH]ccc23)c1 (stereo not drawn) [Compound 9, 4-[(4-{3-cyano-2-[3-(7H-pyrrolo[2,3-d]pyrimidin-4-yl)-1H-pyrrol-1-yl]propyl}piperazin-1-yl)carbonyl]-3-fluorobenzonitrile] | > 8.00 | >10 | –
19 | CCNCc1cc(O[C@H]2CC[C@@H](N3CC(CC#N)(n4cc(-c5ncnc6[nH]ccc56)cn4)C3)CC2)nc(C(F)(F)F)c1 [Compound 19, {1-(cis-4-{[4-[(ethylamino)methyl]-6-(trifluoromethyl)pyridin-2-yl]oxy}cyclohexyl)-3-[4-(7H-pyrrolo[2,3-d]pyrimidin-4-yl)-1H-pyrazol-1-yl]azetidin-3-yl}acetonitrile] | > 8.00 | >10 | –
20 | C[C@@H]1CCN(C(=O)CC#N)C[C@@H]1N(C)c1ncnc2[nH]ccc12 [tofacitinib] | – | – | inhibits oxazolone-induced colitis
